Reference: US9242977B2, “Trk-inhibiting compound” (ONO PHARMACEUTICAL CO., LTD., priority 2012, dated 2016)

Key:
TrkA [1] = target: T1, TrkA (Homo sapiens (Human), UniProt P04629); assay: TrkA kinase-inhibiting activity using human TrkA expressing cells (CellSenser TrkA-NFAT-bla CHO-K1, NGF-stimulated reporter assay); assay type: cell-based; conditions: CHO-K1 cells expressing human TrkA and NFAT-bla; NGF 50 ng/ml; read-out: TrkA inhibitory activity (IC50; μM)
Protocol: TrkA kinase-inhibiting activity in cell systems was measured using CHO-K1 cells expressing human TrkA and NFAT-bla (CellSenser™ TrkA-NFAT-bla CHO-K1 cells, Invitrogen).
On the day before the assay, CellSenser™ TrkA-NFAT-bla CHO-K1 cells were suspended in an assay medium (Opti-MEM1 Reduced Serum Medium (Invitrogen) containing 0.5% dialysed fetal bovine serum (Invitrogen), 0.1 mM nonessential amino acids (Invitrogen), 1 mM sodium pyruvate (Invitrogen) and antibiotics (100 U/mL penicillin and 100 μg/mL streptomycin (Invitrogen)) and plated at a density of 2.4×10^4 cells/40 μL/well in a 96-well clear bottom plate (Corning, Catalogue No.: 3882). In some wells were added only the assay medium at 40 μL/well (Cell-free). On the day of the assay, 10 mM of the present compound (DMSO solution) was distributed in a 96-well plate (Costar, Catalogue No.: 3363) and serially diluted with DMSO with the geometrical ratio of 3. The serial dilutions were diluted with the assay medium to 100-fold to prepare a solution of the present compound with a 10-times concentration (DMSO concentration: 1%). To the plate where cells were plated was added the present compound at 5 μL/well and the plate was incubated in a CO2 incubator with 5% CO2, 95% Air at 37° C. for 30 minutes. For a control and a blank, the assay medium containing 1% DMSO was added at 5 μL/well in place of the solution of the present compound. Subsequently the assay medium containing NGF (Mouse 2.5s, Natural, Invitrogen) was added to the plate at 5 µL/well (final concentration of NGF: 50 ng/ml) and the plate was incubated in a CO2 incubator with 5% CO2, 95% Air at 37° C. for 5 hours. For a group of blanks, the assay medium was added in place of NGF at 5 μL/well. A reporter assay detection reagent (10 μL/well) was added to the plate and the plate was then incubated in the dark at room temperature for 120 minutes. The reporter assay detection reagent was prepared from LiveBLAzer™-FRET B/G Loading Kit (Invitrogen). On an Analyst GT (Molecular Devices Japan, K.K.) the wells were irradiated with excitation light at 405 nm and the fluorescence intensities at 460 nm and 530 nm were measured. The time resolved fluorescence resonance energy transfer (TR-FRET) ratio of each well was calculated according to the following Equation 2. TR-FRET Ratio=(A460X−A460F)/(A530X−A530F) Equation 2
wherein A460X: the fluorescence intensity at 460 nm of the present compound, control or blank;
A460F: the fluorescence intensity at 460 nm of the Cell-free;
A530X: the fluorescence intensity at 530 nm of the present compound, control or blank; and
A530F: the fluorescence intensity at 530 nm of the Cell-free. […]
The IC50 value of the present compound was calculated from the inhibition curve based on the inhibition rate of the present compound at respective concentrations.

TrkA [2] = target: T1, TrkA; assay: Measurement of TrkA enzyme-inhibiting activity (LanthaScreen TR-FRET kinase assay); assay type: biochemical; conditions: final ATP 150 μM, read-out: TrkA inhibitory activity (IC50; μM)
Protocol: TrkA-inhibiting activity was measured according to the following method using LanthaScreen™ kinase assay reagents (Invitrogen; Fluorescein-Poly GT, LanthaScreen™ Tb-PY20 and TR-FRET Dilution Buffer), TrkA (Invitrogen), ATP (Sigma-Aldrich), a kinase reaction buffer (50 mM HEPES buffer (Sigma-Aldrich) (pH 7.5) containing 0.01% Brij35 (Sigma-Aldrich), 10 mM MgCl2 (Sigma-Aldrich) and 1 mM EGTA (Sigma-Aldrich)) and 0.5 M EDTA (pH 8.0) (Invitrogen).
The present compound was dissolved in dimethylsulfoxide (hereinafter abbreviated as DMSO) to prepare a 10 mM solution. The test compound at 10 mM was distributed into a 96-well plate and serially diluted with DMSO with the geometrical ratio of 3. The serial dilutions (DMSO solutions) were diluted with the kinase reaction buffer to 20-fold to prepare solutions of the present compound with 5-times concentrations (DMSO concentration: 5%). TrkA was diluted with the kinase reaction buffer to prepare a solution at 38.5 ng/mL (enzyme solution). Adenosine triphosphate (hereinafter abbreviated as ATP) was preliminarily diluted in distilled water to prepare a 10 mM solution which was then divided into containers and stored at −20° C. The 10 mM ATP solution and Fluorescein-Poly GT were diluted in the kinase reaction buffer to prepare a solution containing […] of ATP and 500 nM of Fluorescein-Poly GT (ATP-substrate solution). EDTA (0.5 M; pH 8.0) and LanthaScreen™ Tb-PY20 were diluted in the TR-FRET Dilution Buffer to prepare a solution containing 20 mM of EDTA and 4 nM of LanthaScreen™ Tb-PY20 (detection buffer).
The solutions of the present compound (5 μL/well) and the enzyme solution (10 μL/well) were added to a 96-half well assay plate and the plate was shaken at room temperature for 10 minutes on a plate shaker (IKA™ MTS2/4 digital microplate, IKA Japan K.K.). As a control and a blank, the kinase reaction buffer containing 5% DMSO (5 μL/well) was added in place of the solution of the present compound. As a blank, the kinase reaction buffer (10 μL/well) was added in the place of the enzyme solution. The ATP-substrate solution (10 μL/well) was then added to the plate to initiate kinase reaction and the plate was shaken in the dark at room temperature for 1 hour on the plate shaker (final concentration of TrkA: 15.4 ng/mL, final concentration of the substrate: 200 nM and final concentration of ATP: 150 μM). Kinase reaction was terminated by adding the detection buffer (25 μL/well) to the plate and the plate was shaken in the dark at room temperature for 30 minutes on the plate shaker. On an Analyst GT (Molecular Devices Japan, K.K.) the wells were irradiated with excitation light at 340 nm and the fluorescence intensities at 520 nm and 495 nm were measured. The fluorescence intensity at 520 nm for each well was divided by the fluorescence intensity at 495 nm to calculate the time resolved fluorescence resonance energy transfer (TR-FRET) ratio.
The inhibition rate (%) of the present compound was calculated according to the following Equation 1: Inhibition rate (%)={1−(AX−AB)/(AC−AB)×100 Equation 1
wherein AX: the TR-FRET ratio when the present compound is added;
AB: the TR-FRET of the blank; and
AC: the TR-FRET of the control.
The value for 50% inhibition by the present compound (IC50 value) was calculated from the inhibition curve based on the inhibition rate of the present compound at respective concentrations.

T1 sequence (P04629 33-796): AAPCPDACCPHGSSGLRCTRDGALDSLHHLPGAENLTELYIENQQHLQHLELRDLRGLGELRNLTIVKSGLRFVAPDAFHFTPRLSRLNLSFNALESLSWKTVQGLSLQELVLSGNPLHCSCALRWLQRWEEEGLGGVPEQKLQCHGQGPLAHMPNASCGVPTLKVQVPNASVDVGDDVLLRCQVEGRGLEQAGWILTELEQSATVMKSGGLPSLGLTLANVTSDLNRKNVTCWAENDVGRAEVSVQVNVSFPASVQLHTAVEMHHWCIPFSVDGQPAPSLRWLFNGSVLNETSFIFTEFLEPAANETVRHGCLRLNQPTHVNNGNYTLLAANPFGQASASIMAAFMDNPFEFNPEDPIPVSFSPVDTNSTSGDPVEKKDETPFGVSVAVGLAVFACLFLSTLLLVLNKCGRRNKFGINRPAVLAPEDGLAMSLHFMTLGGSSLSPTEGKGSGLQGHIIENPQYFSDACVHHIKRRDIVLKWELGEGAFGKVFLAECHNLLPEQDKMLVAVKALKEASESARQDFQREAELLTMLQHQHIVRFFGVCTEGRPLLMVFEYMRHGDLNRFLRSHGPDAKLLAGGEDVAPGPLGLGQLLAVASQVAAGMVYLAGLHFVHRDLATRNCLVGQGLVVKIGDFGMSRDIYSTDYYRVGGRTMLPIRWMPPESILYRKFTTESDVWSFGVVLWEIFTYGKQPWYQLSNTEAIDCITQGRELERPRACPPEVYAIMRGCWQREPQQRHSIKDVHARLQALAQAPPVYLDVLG

| Structure (SMILES) | IC50 (TrkA [1]) | IC50 (TrkA [2]) |
| --- | --- | --- |
| CCNc1ncc(-c2ccc(Oc3ccc(NC(=O)Nc4cc(C(F)(F)F)cnc4-c4ccc(C)c(C)c4)cn3)cc2)s1 [Example 34, 1-[2-(3,4-dimethylphenyl)-5-(trifluoromethyl)-3-pyridinyl]-3-(6-{4-[2-(ethylamino)-1,3-thiazol-5-yl]phenoxy}-3-pyridinyl)urea] | 0.006 µM | 0.18 µM |
| CCNc1ncc(-c2ccc(Oc3ncc(NC(=O)Nc4cc(C(F)(F)F)cnc4-c4ccc(C)cc4)cn3)cc2)s1 [Example 23, 1-(2-{4-[2-(ethylamino)-1,3-thiazol-5-yl]phenoxy}-5-pyrimidinyl)-3-[2-(4-methylphenyl)-5-(trifluoromethyl)-3-pyridinyl]urea] | 0.004 µM | 0.09 µM |
| CCCNc1ncc(-c2ccc(Oc3ncc(NC(=O)Nc4cc(C(F)(F)F)ccc4Cl)cn3)cc2)s1 [Example 85-117, 1-[2-chloro-5-(trifluoromethyl)phenyl]-3-(2-{4-[2-(propylamino)-1,3-thiazol-5-yl]phenoxy}-5-pyrimidinyl)urea] | 0.002 µM | 0.02 µM |
| O=C(Nc1cnc(Oc2ccc(-c3cnc(N4CCCC4=O)s3)cc2)nc1)Nc1cc(C(F)(F)F)cnc1-c1ccccc1 [Example 54, 1-(2-{4-[2-(2-oxo-1-pyrrolidinyl)-1,3-thiazol-5-yl]phenoxy}-5-pyrimidinyl)-3-[2-phenyl-5-(trifluoromethyl)-3-pyridinyl]urea] | 0.004 µM | 0.04 µM |
| CCNc1ncc(-c2ccc(Oc3ncc(NC(=O)Nc4cc(C(F)(F)F)cnc4Oc4ccccc4)cn3)cc2)s1 [Example 48, 1-(2-{4-[2-(ethylamino)-1,3-thiazol-5-yl]phenoxy}-5-pyrimidinyl)-3-[2-phenoxy-5-(trifluoromethyl)-3-pyridinyl]urea] | 0.01 µM | 0.12 µM |
| Cc1cccc(-c2ncc(C(F)(F)F)cc2NC(=O)Nc2cnc(Oc3ccc(-c4cnc(N5CCCC5=O)s4)cc3)nc2)c1 [Example 57, 1-[2-(3-methylphenyl)-5-(trifluoromethyl)-3-pyridinyl]-3-(2-{4-[2-(2-oxo-1-pyrrolidinyl)-1,3-thiazol-5-yl]phenoxy}-5-pyrimidinyl)urea] | 0.003 µM | 0.03 µM |
